Test results published in PubChem BioAssay (NCI).
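Here, GI50 denotes the concentration required for 50% inhibition of growth. TGI denotes the concentration required for complete inhibition of growth.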

What was measured:
Assay in all cases: inhibition of tumour cell growth, NCI panel, 384-well format
[1] = test system: 786-0 renal
[2] = test system: A498 renal
[3] = test system: A549 NSCLC
[4] = test system: ACHN renal
[5] = test system: CAKI-1 renal
[6] = test system: COLO 205 colon
[7] = test system: DU-145 prostate
[8] = test system: EKVX NSCLC
[9] = test system: HCT-116 colon
[10] = test system: HCT-15 colon
[11] = test system: HL-60(TB) leukemia
[12] = test system: HOP-62 NSCLC
[13] = test system: HOP-92 NSCLC
[14] = test system: HS 578T breast
[15] = test system: HT29 colon
[16] = test system: IGROV1 ovarian
[17] = test system: K-562 leukemia
[18] = test system: KM12 colon
[19] = test system: M14 melanoma
[20] = test system: MALME-3M melanoma
[21] = test system: MCF7 breast
[22] = test system: MDA-MB-231 breast
[23] = test system: MDA-MB-435 melanoma
[24] = test system: MDA-MB-468 breast
[25] = test system: MOLT-4 leukemia
[26] = test system: NCI-H226 lung
[27] = test system: NCI-H23 lung
[28] = test system: NCI-H322M lung
[29] = test system: NCI-H460 NSCLC
[30] = test system: NCI-H522 lung
[31] = test system: OVCAR-3 ovarian
[32] = test system: OVCAR-4 ovarian
[33] = test system: OVCAR-5 ovarian
[34] = test system: OVCAR-8 ovarian
[35] = test system: PC-3 prostate
[36] = test system: RXF 393 renal
[37] = test system: SF-268 CNS
[38] = test system: SF-295 CNS
[39] = test system: SF-539 CNS
[40] = test system: SK-MEL-2 melanoma
[41] = test system: SK-MEL-28 melanoma
[42] = test system: SK-MEL-5 melanoma
[43] = test system: SK-OV-3 ovarian
[44] = test system: SN12C renal
[45] = test system: SNB-19 CNS
[46] = test system: SNB-75 CNS
[47] = test system: SR leukemia
[48] = test system: SW-620 colon
[49] = test system: T-47D breast
[50] = test system: TK-10 renal
[51] = test system: U251 glioblastoma
[52] = test system: UACC-257 melanoma
[53] = test system: UACC-62 melanoma
[54] = test system: UO-31 renal

Q: What does the source list for `C[C@@H](COCCC(=O)N1CCN(c2ncc(C(F)(F)F)cn2)CC1)Nc1cn[nH]c(=O)c1C(F)(F)F`?
A: GI50 [1]: 41.5 µM; TGI [1]: > 100 µM; GI50 [2]: > 100 µM; TGI [2]: > 100 µM; GI50 [3]: 41 µM; TGI [3]: > 100 µM; GI50 [4]: 24 µM; TGI [4]: > 100 µM; GI50 [5]: 25.7 µM; TGI [5]: > 100 µM; GI50 [6]: > 100 µM; TGI [6]: > 100 µM; GI50 [7]: 12.7 µM; TGI [7]: > 100 µM; GI50 [8]: 63.6 µM; TGI [8]: > 100 µM; GI50 [9]: 8.64 µM; TGI [9]: > 100 µM; GI50 [10]: 77.9 µM; TGI [10]: > 100 µM; GI50 [11]: 2.49 µM; TGI [11]: 16 µM; GI50 [12]: 4.01 µM; TGI [12]: 22.5 µM; GI50 [13]: 41.2 µM; TGI [13]: > 100 µM; GI50 [14]: 1.09 µM; TGI [14]: > 100 µM; GI50 [15]: > 100 µM; TGI [15]: > 100 µM; GI50 [16]: 69.1 µM; TGI [16]: > 100 µM; GI50 [17]: 10 µM; TGI [17]: > 100 µM; GI50 [18]: 3.66 µM; TGI [18]: 82.7 µM; GI50 [19]: 46.8 µM; TGI [19]: > 100 µM; GI50 [20]: > 100 µM; TGI [20]: > 100 µM; GI50 [21]: 14.5 µM; TGI [21]: > 100 µM; GI50 [22]: > 100 µM; TGI [22]: > 100 µM; GI50 [23]: > 100 µM; TGI [23]: > 100 µM; GI50 [24]: 3.72 µM; TGI [24]: 23.5 µM; GI50 [25]: 1.53 µM; TGI [25]: 2.97 µM; GI50 [26]: 18.6 µM; TGI [26]: > 100 µM; GI50 [27]: 9.26 µM; TGI [27]: 52.1 µM; GI50 [28]: > 100 µM; TGI [28]: > 100 µM; GI50 [29]: 16.1 µM; TGI [29]: > 100 µM; GI50 [30]: 31.8 µM; TGI [30]: > 100 µM; GI50 [31]: 35.5 µM; TGI [31]: > 100 µM; GI50 [32]: > 100 µM; TGI [32]: > 100 µM; GI50 [33]: > 100 µM; TGI [33]: > 100 µM; GI50 [34]: 14.7 µM; TGI [34]: > 100 µM; GI50 [35]: 62.5 µM; TGI [35]: > 100 µM; TGI [36]: 20.3 µM; GI50 [37]: 10.1 µM; TGI [37]: 73.1 µM; GI50 [38]: 6.19 µM; TGI [38]: 33.9 µM; GI50 [39]: 3.28 µM; TGI [39]: 27.4 µM; GI50 [40]: > 100 µM; TGI [40]: > 100 µM; GI50 [41]: > 100 µM; TGI [41]: > 100 µM; GI50 [42]: 48.5 µM; TGI [42]: > 100 µM; GI50 [43]: 13.9 µM; TGI [43]: 79.8 µM; GI50 [44]: 5.17 µM; TGI [44]: 51.9 µM; GI50 [45]: 48 µM; TGI [45]: > 100 µM; GI50 [46]: 12.4 µM; TGI [46]: > 100 µM; GI50 [47]: 1.31 µM; TGI [47]: 2.67 µM; GI50 [48]: 0.187 µM; TGI [48]: > 100 µM; GI50 [49]: 24.2 µM; TGI [49]: > 100 µM; GI50 [50]: > 100 µM; TGI [50]: > 100 µM; GI50 [51]: 11.6 µM; TGI [51]: 73.7 µM; GI50 [52]: 60.4 µM; TGI [52]: > 100 µM; GI50 [53]: 32.3 µM; TGI [53]: > 100 µM; GI50 [54]: 22.4 µM; TGI [54]: > 100 µM
